In ChEMBL document CHEMBL1150586, “Goniolactones A-F, six new styrylpyrone derivatives from the roots of Goniothalamus cheliensis” (J Nat Prod, 2002):

Key:
Assay type in all cases: functional, cell-based
A2780 = test: Cytotoxicity against human A2780 cells after 5 days by MTT assay; conditions: A2780, 120 h
HCT-8 = test: Cytotoxicity against human HCT8 cells after 5 days by MTT assay; conditions: HCT-8, 120 h
KB = test: Cytotoxicity against human KB cells after 5 days by MTT assay; conditions: 120 h

## O=C1C=CC[C@H]([C@H](O)[C@@H](c2ccccc2)c2c(O)cc3c(c2O)C(=O)C[C@@H](c2ccccc2)O3)O1 [GONIOLACTONE B]
A2780
  IC50: 7.4 µM
HCT-8
  IC50: 4.43 µM
KB
  IC50: 7.23 µM
